Source: patent publication US12497460B2, “Anti-MSR1 antibodies and methods of use thereof” (REGENERON PHARMACEUTICALS, INC., priority 2018, dated 2025)
Values after ≈ are worked out from the molar mass of the structure shown.

Assay: Solubility in water of linker-payloads

CCCC1O[C@@H]2C[C@H]3[C@@H]4C[C@H](F)C5=CC(=O)C=C[C@]5(C)[C@@]4(F)[C@@H](O)C[C@]3(C)C2(C(=O)CNC(=O)OCc2ccc(NC(=O)[C@H](CCCNC(N)=O)NC(=O)[C@@H](NC(=O)[C@@H](CCCCNC(=O)COC3CCCCCc4c3nnn4CC3OC4OC5C(CO)OC(OC6C(CO)OC(OC7C(CO)OC(OC8C(CO)OC(OC9C(CO)OC(OC3C(O)C4O)C(O)C9O)C(O)C8O)C(O)C7O)C(O)C6O)C(O)C5O)NC(=O)CCOCCOCCOCCOCCNC(=O)CCC(=O)N3Cc4ccccc4C#Cc4ccccc43)C(C)C)cc2)O1 (stereo partly shown) [LP14]
solubility: 26 µg/mL (≈ 9.64 µM)
